Test results reported in ChEMBL document CHEMBL1146550, “Sesquiterpenoid derivatives from Gonospermum elegans and their cytotoxic activity for HL-60 human promyelocytic cells” (J Nat Prod, 2003).
pIC50: −log10 of the molar value. One block for each compound: values may come before it. The source made the active and inactive calls. The calls are words filed in the database; no cut-off is given here.

Key:
HL-60 [1] = assay: Induction of apoptosis in human HL60 cells assessed as […] DNA fragmentation at 1 uM after 12 hrs by agarose gel electrophoresis; format: functional, cell-based
HL-60 [2] = assay: Antiproliferative activity against human HL60 cells after 24 hrs by MTT assay; format: functional, cell-based; conditions: for pIC50: HL-60, 24 h
HL-60 [3] = assay: Induction of apoptosis in human HL60 cells assessed as apoptotic cells at 1 uM after 12 hrs by Hoechst staining-based fluorescence microscopy; format: functional
HL-60 [4] = assay: Induction of apoptosis in human HL60 cells assessed as PARP cleavage at 0.1 to 1 uM after 8 hrs by SDS-PAGE; format: functional, cell-based
HL-60 [5] = assay: Induction of apoptosis in human HL60 cells assessed as apoptotic cells after 12 hrs by Hoechst staining-based fluorescence microscopy; format: functional, cell-based
HL-60 [6] = assay: Induction of apoptosis in human HL60 cells assessed as peripheral nuclear chromatin condensation at 0.1 to 3 uM after 12 hrs by Hoechst staining-based fluorescence microscopy; format: functional, cell-based
HL-60 [7] = assay: Induction of apoptosis in human HL60 cells assessed as PARP cleavage at 0.1 to 1 uM after 12 hrs by SDS-PAGE; format: functional, cell-based
HL-60 [8] = assay: Induction of apoptosis in human HL60 cells assessed as PARP cleavage at 1 to 10 uM after 8 hrs by SDS-PAGE; format: functional, cell-based
HL-60 [9] = assay: Induction of apoptosis in human HL60 cells assessed as apoptotic cells at 10 uM after 12 hrs by Hoechst staining-based fluorescence microscopy; format: functional
HL-60 [10] = assay: Induction of apoptosis in human HL60 cells assessed as PARP cleavage at 1 to 10 uM after 12 hrs by SDS-PAGE; format: functional, cell-based
HL-60 [11] = assay: Induction of apoptosis in human HL60 cells assessed as […] DNA fragmentation at 10 uM after 12 hrs by agarose gel electrophoresis; format: functional, cell-based

pIC50 (HL-60 [2]): 6.60
SMILES: C=C1CC[C@H](OC(C)=O)/C(C)=C\[C@@H]2OC(=O)C(=C)[C@H]2[C@H](OC(C)=O)C1=O
Activity (HL-60 [1]): Active
Activity (HL-60 [2]): Dose-dependent effect
Activity (HL-60 [3]): 25.9%
Activity (HL-60 [4]): Active
Activity (HL-60 [5]): Dose-dependent effect
Activity (HL-60 [6]): Active
Activity (HL-60 [7]): Active

pIC50 (HL-60 [2]): 4.26
SMILES: C=C1C(=O)O[C@H]2C[C@@]3(C)[C@H](C(=C)CC[C@@H]3O)[C@@H](O)[C@H]12 [ELEGALACTONE A]

pIC50 (HL-60 [2]): 5.28
SMILES: C=C1C(=O)O[C@H]2C[C@]3(C)[C@@H](OC(C)=O)CCC(=C)[C@@H]3[C@@H](OC(C)=O)[C@H]12
Activity (HL-60 [8]): Active
Activity (HL-60 [9]): 14.3%
Activity (HL-60 [2]): Dose-dependent effect
Activity (HL-60 [10]): Active
Activity (HL-60 [5]): Dose-dependent effect
Activity (HL-60 [11]): Active
